Assays:
human TLR7 (hTLR7) = target: T1, human TLR7 (hTLR7) (Homo sapiens, UniProt Q9NYK1); test: Human TLR7 agonist activity assay (HEK-Blue TLR7 SEAP reporter); assay type: cell-based; details: HEK-Blue TLR7 cells, 18 h incubation, Quanti-Blue, OD 620 nm, some values average of multiple measurements
T1 construct: host or cells: HEK-Blue TLR7 cells (engineered human embryonic kidney cells)
T1 sequence (Q9NYK1 27-1049): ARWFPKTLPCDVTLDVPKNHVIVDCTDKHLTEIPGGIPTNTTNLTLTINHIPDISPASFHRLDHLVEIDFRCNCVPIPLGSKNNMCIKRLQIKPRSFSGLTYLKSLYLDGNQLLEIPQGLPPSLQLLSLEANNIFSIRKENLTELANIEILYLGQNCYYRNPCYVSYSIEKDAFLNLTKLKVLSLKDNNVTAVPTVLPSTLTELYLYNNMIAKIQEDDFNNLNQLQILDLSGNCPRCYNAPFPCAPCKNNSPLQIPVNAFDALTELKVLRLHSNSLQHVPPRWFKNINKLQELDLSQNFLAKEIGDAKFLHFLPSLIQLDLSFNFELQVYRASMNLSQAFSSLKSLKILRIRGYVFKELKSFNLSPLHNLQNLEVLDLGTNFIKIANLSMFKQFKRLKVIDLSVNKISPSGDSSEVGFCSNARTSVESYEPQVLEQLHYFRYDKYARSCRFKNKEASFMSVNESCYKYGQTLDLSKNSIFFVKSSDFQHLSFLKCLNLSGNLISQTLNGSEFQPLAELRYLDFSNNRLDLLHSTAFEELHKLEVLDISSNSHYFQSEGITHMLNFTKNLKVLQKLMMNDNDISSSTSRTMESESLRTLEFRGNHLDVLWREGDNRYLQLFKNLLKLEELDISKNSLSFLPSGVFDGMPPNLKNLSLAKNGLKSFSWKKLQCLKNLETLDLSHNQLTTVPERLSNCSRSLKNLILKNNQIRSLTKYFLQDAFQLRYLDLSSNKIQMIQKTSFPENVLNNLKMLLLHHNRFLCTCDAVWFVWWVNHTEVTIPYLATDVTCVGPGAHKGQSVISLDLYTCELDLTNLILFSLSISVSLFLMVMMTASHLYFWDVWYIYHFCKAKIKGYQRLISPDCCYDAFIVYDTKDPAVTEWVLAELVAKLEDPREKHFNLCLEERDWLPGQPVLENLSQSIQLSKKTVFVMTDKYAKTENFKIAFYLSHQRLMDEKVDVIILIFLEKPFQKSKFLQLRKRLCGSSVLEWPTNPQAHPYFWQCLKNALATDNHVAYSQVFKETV
Procedure, shortened: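 HEK-Blue TLR7 cells seeded 16-18 h, then exposed to compound for 18 h at 37 °C, 5% CO2. Secreted SEAP read with Quanti-Blue at OD 620 nm after 30 min. EC50 taken as concentration giving half-maximal response between baseline and maximum; some values averaged over repeats.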

human TLR8 (hTLR8) = target: T2, human TLR8 (hTLR8) (Homo sapiens, UniProt Q9NR97); test: Human TLR8 agonist activity assay (measured in a similar manner); assay type: cell-based; details: HEK-Blue TLR cells, SEAP reporter, measured in a similar manner to TLR7; some values average of multiple measurements
T2 construct: expressed in transfected cells
T2 sequence (Q9NR97 27-1041): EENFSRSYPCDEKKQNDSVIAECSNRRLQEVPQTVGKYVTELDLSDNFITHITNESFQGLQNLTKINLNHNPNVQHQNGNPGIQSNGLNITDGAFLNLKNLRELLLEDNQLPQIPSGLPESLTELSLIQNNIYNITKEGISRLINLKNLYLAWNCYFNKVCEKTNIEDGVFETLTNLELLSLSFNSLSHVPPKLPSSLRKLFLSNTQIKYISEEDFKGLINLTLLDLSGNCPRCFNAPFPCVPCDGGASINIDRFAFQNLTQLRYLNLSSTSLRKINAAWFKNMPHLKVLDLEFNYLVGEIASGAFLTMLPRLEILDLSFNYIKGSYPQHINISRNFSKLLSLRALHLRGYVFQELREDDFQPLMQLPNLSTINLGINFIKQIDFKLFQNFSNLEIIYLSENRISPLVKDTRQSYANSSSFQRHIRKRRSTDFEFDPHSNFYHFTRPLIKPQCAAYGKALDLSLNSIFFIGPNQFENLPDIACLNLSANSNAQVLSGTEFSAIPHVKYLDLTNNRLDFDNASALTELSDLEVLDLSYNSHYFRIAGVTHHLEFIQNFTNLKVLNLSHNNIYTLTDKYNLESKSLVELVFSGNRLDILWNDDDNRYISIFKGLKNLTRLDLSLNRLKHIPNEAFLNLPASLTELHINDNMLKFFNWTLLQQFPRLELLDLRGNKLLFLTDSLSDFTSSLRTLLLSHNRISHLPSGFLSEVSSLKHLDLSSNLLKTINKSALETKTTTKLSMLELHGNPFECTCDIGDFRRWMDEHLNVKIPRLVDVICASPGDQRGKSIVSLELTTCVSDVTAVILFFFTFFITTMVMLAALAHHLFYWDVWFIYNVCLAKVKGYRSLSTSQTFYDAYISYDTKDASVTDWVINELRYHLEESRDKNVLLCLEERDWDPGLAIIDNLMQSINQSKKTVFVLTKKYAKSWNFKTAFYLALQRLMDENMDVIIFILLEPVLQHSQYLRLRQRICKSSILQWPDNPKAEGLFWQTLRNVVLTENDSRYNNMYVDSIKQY
Procedure, shortened: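 Compounds were added to HEK-Blue TLR8 reporter cells, pre-incubated 16-18 h, then treated 18 h at 37° C, 5% CO2. SEAP output was measured with Quanti-Blue (30 min) at OD 620 nm. Some values are averages of multiple measurements.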

SMILES | EC50 (human TLR7 (hTLR7)) [µM] | EC50 (human TLR8 (hTLR8)) [µM]
CCCCN(CCO)c1nc(N)nc2cn(Cc3ncc(CNC(C)(C)C)cc3OC)nc12 [Compound 201] | 1.35 | 3.14
CCCCCN(CCO)c1nc(N)nc2cn(Cc3ccc(CN[C@@H]4CCOC4)cc3OC)nc12 [Compound 70] | 1.05 | 1.06
CCCCN(CCO)c1nc(N)nc2cn(Cc3c(F)cc(N4CCC(NC5CC6(COC6)C5)CC4)cc3F)nc12 [Compound 133] | 0.513 | 2.1
CCCCN(CCO)c1nc(N)nc2cn(Cc3c(F)cc(CN[C@H]4C[C@H](O)C4)cc3F)nc12 [Compound 117] | 1.19 | 1.97
CCCCN(CCO)c1nc(N)nc2cn(Cc3ccc(CN[C@H]4CCOC4)cc3OC)nc12 [Compound 52] | 1.19 | 1.07
CCCCN(c1nc(N)nc2cn(Cc3ccc(CN[C@@H]4CCOC4)cc3OC)nc12)C(C)CO (stereo partly drawn) [Compound 86] | 0.229 | 0.311
CCCCN(CCO)c1nc(N)nc2cn(Cc3ccc(CNC4CCOCC4)c4c3OCCC4)nc12 [Compound 137] | 1.05 | 0.4
CCCCN(CCO)c1nc(N)nc2cn(Cc3ccc(CN[C@H]4CCOC4)c4c3OCCC4)nc12 [Compound 136, (S)-2-((5-Amino-2-((5-(((tetrahydrofuran-3-yl)amino)methyl)chroman-8-yl)methyl)-2H-pyrazolo[4,3-d]pyrimidin-7-yl)(butyl)amino) ethan-1-ol] | 0.861 | 0.36
CCCCN(c1nc(N)nc2cn(Cc3ccc(CN4CCCCC4)cc3OC)nc12)C(C)CO (single isomer, unassigned) [Compound 49-2, 2-((5-amino-2-(2-methoxy-4-(piperidin-1-ylmethyl)benzyl)-2H-pyrazolo[4,3-d]pyrimidin-7-yl)(butyl)amino)propan-1-ol] | 0.385 | 0.682
CCCCN(c1nc(N)nc2cn(Cc3ccc(CN4CCCCC4)cc3OC)nc12)C(C)CO (stereo not drawn) [Compound 50] | 0.374 | 0.949
CCCCN(CCO)c1nc(N)nc2cn(Cc3ccc(CNC4CCCOC4)cc3OC)nc12 (stereo not drawn) [Compound 104] | 1.75 | 2.16
CCCCN(c1nc(N)nc2cn(Cc3c(F)cc(C4CCN(C5CC6(COC6)C5)CC4)cc3OC)nc12)C(C)CO (stereo not drawn) [Compound 164] | 0.196 | 0.614
CCCCN(CCO)c1nc(N)nc2cn(Cc3ccc(CNC4CCC4)n4ncnc34)nc12 [Compound 175, 2-((5-Amino-2-((5-((cyclobutylamino)methyl)-[1,2,4]triazolo[1,5-a]pyridin-8-yl)methyl)-2H-pyrazolo[4,3-d]pyrimidin-7-yl)(butyl)amino)ethan-1-ol] | 0.307 | 0.328
CCCCN(CCO)c1nc(N)nc2cn(Cc3c(OC)cc(CNC(C)C)cc3OC)nc12 [Compound 146] | 1.82 | 1.77
CCCCN(CCO)c1nc(N)nc2cn(Cc3ccc(CNC4(C)CC4)cc3OC)nc12 [Compound 89] | 1.55 | 0.961
CCCCN(CCO)c1nc(N)nc2cn(Cc3ccc(CN4CC(CCO)C4)c4cccnc34)nc12 [Compound 62] | 1.31 | 0.675
CCCCN(CCO)c1nc(N)nc2cn(Cc3ccc(CN4CC(OC)C4)cc3OC)nc12 [Compound 5] | 0.643 | 0.7
CCCCN(CCO)c1nc(N)nc2cn(Cc3c(F)cc(CNCCO)cc3F)nc12 [Compound 113] | 0.937 | 2.96
CCCCN(CCO)c1nc(N)nc2cn(Cc3ccc(CN[C@H]4CC[C@H](O)CC4)c4cccnc34)nc12 [Compound 169] | 1.09 | 0.628
CCCCN(CCO)c1nc(N)nc2cn(Cc3c(F)cc(C4CCN(C)CC4)cc3OC)nc12 [Compound 47] | 0.186 | 0.538
CCCCN(CCO)c1nc(N)nc2cn(Cc3c(F)cc(C4CCC(N(C)CCOC)CC4)cc3OC)nc12 (stereo not drawn) [Compound 199] | 0.274 | 1.62

From patent publication US20250282776A1, “Bicyclic TLR7 Agonists and Uses Thereof” (Bristol-Myers Squibb Company, priority 2024, published 2025)
